Results from patent publication US20110286979A1, “CHEMOSENSITIZATION BY BI-FUNCTIONAL SMALL HAIRPIN RNA (bi-shRNA)” (GRADALIS, INC., priority 2010, published 2011).
Where two headings read alike, the source gives them in different places.

Columns and labels:
[1] = tested on: CCL-247 colorectal cancer cells; assay: BrdU Cell Proliferation Assay, docetaxel dose response with/without shRNA plasmid electroporation; type: cell-based, human; details: for IC50: Homo sapiens
Procedure: Docetaxel storage stock was made in 10 mM, with DMSO as solvent in a biological safety cabinet for sterility purposes. Docetaxel solution was stored in 4° C. fridge away from direct light. For each experiment, docetaxel storage solution was brought to room temperature to thaw, about 30 min before usage. A 5 uM working solution was made and further diluted 1:50. To 9.8 ml complete CCL-247 media, 0.2 ml 5 uM working solution was added so that 10 ul of the solution into final volume of 100 ul will make 10 nM. The 10 nM solution was serially diluted to make 5 nM, 2.5 nM, 1.25 nM, 0.625 nM, and 0.3124 nM.
The CCL-247 media comprises HyClone McCoy's 5A medium 500 ml, FBS 50 ml, and L-Glutamine 10 ml. Under the biological cabinet, the above solutions were mixed into McCoy's 5A medium 500 ml bottle. The mixture was poured at the top part of filter, a vacuum pump was turned on to filter the mixed medium through. The media was stored at 4° C. after use.
The % growth inhibition is calculated as: […]

SK-Mel-28 melanoma cells = assay: as above; details: Homo sapiens
Procedure: Cells are cultured and grown to sufficient amount for the studies. The shRNA plasmid transfection was performed by electroporation, in the dose of 50 ug/10 million cell. Finally the different ingredients were placed in 96-well plates (media, transfected cells with and without docetaxel, buffer) and incubated at 37° C. with 5% CO2. Growth inhibition was studied using the BrdU Cell Proliferation Assay kit at 24, 48, and 72 hrs.
The cell growth inhibition for each of treatment is calculated from direct OD reading. The % growth inhibition is calculated as:
% growth inhibition of control=ODtreated−ODtreatedNoBrdUcontrol/ODuntreated−ODuntreatedNoBrdUcontrol
wherein, ODtreated: OD reading from the shRNA plasmid and/or docetaxel treated reactant; ODtreatedNoBrdUcontrol: OD reading from the shRNA plasmid and/or docetaxel treated reactant, but without BrdU labeling; ODuntreated: OD reading from reactants without shRNA plasmid or docetaxel treatment; ODuntreatedNoBrdUcontrol: OD reading from reactants without shRNA plasmid or docetaxel treatment, and without BrdU labeling.
The % growth inhibition is calculated and plotted against treatment dose of docetaxel. From the plotted % growth inhibition IC50 is determined from curve for shRNA with/without docetaxel, as well as with docetaxel in different concentrations. IC50—half maximal inhibitory concentration, is a measure of the effectiveness of a compound (docetaxel for this study) in inhibiting biological function (cell growth for this study).

IC50 ([1]; 48 h, CCL-247, + pbi-shRNA^STMN1, 48 h, read-out: Docetaxel IC50 (mean ± SD)): 0.6 ± 0.4 nM | IC50 ([1]; 48 h, CCL-247, no ShRNA, 48 h, read-out: Docetaxel IC50 (mean ± SD)): 1.8 ± 0.2 nM | IC50 ([1]; 72 h, CCL-247, + pbi-shRNA^STMN1, 72 h, read-out: Docetaxel IC50 (mean ± SD)): 0.6 ± 0.4 nM | IC50 ([1]; 72 h, CCL-247, + scrambled control, 72 h, read-out: Docetaxel IC50 (mean ± SD)): 1 ± 0.6 nM | IC50 ([1]; 72 h, CCL-247, no ShRNA, 72 h, read-out: Docetaxel IC50 (mean ± SD)): 1 ± 0.4 nM | IC50 ([1]; CCL-247, with STMN1 knockdown (bi-shRNA^STMN1), BrdU, n=3, read-out: IC50 of docetaxel): 0.6 ± 0.4 nM | IC50 ([1]; CCL-247, without STMN1 knockdown, BrdU, n=3, read-out: IC50 of docetaxel): 1.8 ± 0.2 nM | IC50 (SK-Mel-28 melanoma cells; SK-MEL-28, 48 h, read-out: Docetaxel IC50 (mean ± SD), SK-Mel-28, + pbi-shRNA^STMN1, 48 h): 0.1 nM | IC50 (SK-Mel-28 melanoma cells; SK-MEL-28, 48 h, read-out: Docetaxel IC50 (mean ± SD), SK-Mel-28, + scrambled control, 48 h): 1 ± 0.2 nM | IC50 (SK-Mel-28 melanoma cells; SK-MEL-28, 48 h, read-out: Docetaxel IC50 (mean ± SD), SK-Mel-28, no ShRNA, 48 h): 1.7 ± 2 nM | IC50 (SK-Mel-28 melanoma cells; SK-MEL-28, 72 h, read-out: Docetaxel IC50 (mean ± SD), SK-Mel-28, + pbi-shRNA^STMN1, 72 h): 0.2 ± 0.1 nM | IC50 (SK-Mel-28 melanoma cells; SK-MEL-28, 72 h, read-out: Docetaxel IC50 (mean ± SD), SK-Mel-28, + scrambled control, 72 h): 0.9 ± 0.2 nM | IC50 (SK-Mel-28 melanoma cells; SK-MEL-28, 72 h, read-out: Docetaxel IC50 (mean ± SD), SK-Mel-28, no ShRNA, 72 h): 0.8 ± 0.2 nM | IC50 (SK-Mel-28 melanoma cells; SK-MEL-28, read-out: IC50 of docetaxel, SK-Mel-28, with STMN1 knockdown (bi-shRNA^STMN1), BrdU, n=3): 0.1 nM | IC50 (SK-Mel-28 melanoma cells; SK-MEL-28, read-out: IC50 of docetaxel, SK-Mel-28, without STMN1 knockdown, BrdU, n=3): 1.7 ± 0.2 nM
SMILES: CC(=O)O[C@@]12CO[C@@H]1C[C@H](O)[C@@]1(C)C(=O)[C@H](O)C3=C(C)[C@@H](OC(=O)[C@H](O)[C@@H](NC(=O)OC(C)(C)C)c4ccccc4)C[C@@](O)([C@@H](OC(=O)c4ccccc4)[C@H]21)C3(C)C [Docetaxel, docetaxel]
cell growth compared to control ([1]; CCL-247, docetaxel alone 1.25 nM, 48 hrs): about 70%
